Data as given in patent US20210145801A1, “THERAPY FOR PROTEIN MISFOLDING DISEASE” (WREN THERAPEUTICS LIMITED, priority 2018, published 2021).
“Also recorded” adds a separate entry of the source.

Columns and labels:
[1] = target: T1, Aβ42 (Homo sapiens, UniProt P05067); test: ThT kinetic assay of Aβ42 aggregation (unseeded); assay type: biochemical
T1 construct: made in house; host or cells: E. coli BL21 Gold (DE3)
Excerpt: The recombinant Aβ(M1-42) peptide ([…]-SNKGAIIGLMVGGVVIA [SEQ ID NO: 1]), here called Aβ42, was expressed in the E. coli BL21 Gold (DE3) strain (Stratagene, Calif., U.S.A.) and purified as described previously with slight modifications. Briefly, the purification procedure involved sonication of E. coli cells, dissolution of inclusion bodies in 8 M urea, and ion exchange in batch mode on diethylaminoethyl cellulose resin and lyophylization. The lyophilized fractions were further purified using Superdex 75 HR 26/60 column (GE Healthcare, Buckinghamshire, U.K.) and eluates were analyzed using SDS-PAGE for the presence of the desired protein product. The fractions containing the recombinant protein were combined, frozen using liquid nitrogen, and lyophilized again.
Except for Netoglitazone, which was custom synthesised by GVK BIO, all small molecules were purchased with a purity greater than 99%. Small molecules were first solubilized in 100% DMSO to a concentration of 5 mM, and then diluted in the peptide solution to reach a final DMSO concentration of maximum 1-3%. We verified that the addition of DMSO in the reaction mixture has no effect on Aβ42 aggregation.
Solutions of monomeric peptides were prepared by dissolving the lyophilized Aβ42 peptide in 6 M GuHCl. Monomeric forms were purified from potential oligomeric species and salt using a Superdex 75 10/300 GL column (GE Healthcare) at a flowrate of 0.5 mL/min, and were eluted in 20 mM sodium phosphate buffer, pH 8 supplemented with 200 μM EDTA and 0.02% NaN3. The centre of the peak was collected, and the peptide concentration was determined from the absorbance of the integrated peak area using ε280=1490 L mol^−1 cm^−1. The obtained monomer was diluted with buffer to the desired concentration and supplemented with 20 μM Thioflavin T (ThT) from a 1 mM stock. All samples were prepared in low binding Eppendorf tubes on ice using careful pipetting to avoid introduction of air bubbles. Each sample was then pipetted into multiple wells of a 96-well half-area, low-binding, clear bottom and PEG coating plate (Corning 3881), 80 μL per well. Aβ42 kinetics have been performed in the absence or the presence of Netoglitazone, Mitoglitazone, Rosiglotazone, Rivoglitazone, Pioglitazone, Ciglitazone, Englitazone, Darglitazone, Troglitazone and Balaglitazone.
The time evolution of the total fibril mass concentration is described as a function only of the initial conditions and the rate constants of the system by the integrated rate law given by Eq. (54) in Cohen et al., J Chem Phys 135, 065106, 2011.
These are related to the rate of formation of new aggregates through primary pathways λ=√{square root over (2k+knm(0)^n^c)} and through secondary pathways κ=√{square root over (2k+k2m(0)^n^2^+1)}, where the initial concentration of soluble monomers is denoted by m(0), nc and n2 describe the dependencies of the primary and secondary pathways on the monomer concentration (nc=n2=2 for Aβ42), and kn, k+ and k2 are the rate constants of the primary nucleation, elongation and secondary nucleation, respectively (Cohen et al., Proc Natl Acad Sci USA, 110(24), 9758-63, 2013).
Inhibitors can interfere with the aggregation process by inhibiting one or more of the individual microscopic steps.

[2] = target: T1, Aβ42; test: Seeded Aβ42 aggregation kinetics (2% or 50% preformed fibril seeds); assay type: biochemical; conditions: 2 μM Aβ42; 50% seeds; up to 20-fold excess
Description: For the seeded experiments, preformed fibrils were prepared just prior to the experiment. Kinetic experiments were set up as described above for 5 μM Aβ42 samples in 20 mM sodium phosphate buffer, pH 8 with […] EDTA, 0.02% NaN3 and 20 μM ThT. The ThT fluorescence was monitored for 3 hours to verify the formation of fibrils. Samples were then collected from the wells into low-binding tubes. Under the considered conditions (i.e. 5 μM Aβ42), the monomer concentration is negligible at equilibrium. The final concentration of fibrils, in monomer equivalents, was considered equal to the initial concentration of monomer. Fibrils were then added to freshly prepared monomer in order to reach either 2% or 50% final concentration of seeds in the absence or the presence of Netoglitazone.
Inhibitors can interfere with the aggregation process by inhibiting one or more of the individual microscopic steps. […]

T1 sequence (P05067 671-713): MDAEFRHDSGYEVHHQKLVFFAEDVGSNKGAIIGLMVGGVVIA

Structure (SMILES): O=C1NC(=O)C(Cc2ccc3cc(OCc4ccccc4F)ccc3c2)S1 (stereo not drawn) [Netoglitazone]
- Effect on rate constants of primary (knk+) and secondary (k2k+) pathways ([1]; 2 μM Aβ42, unseeded, fit of rate laws): can affect both nucleation pathways in Aβ42 aggregation to different extents
- Delay of Aβ42 aggregation (ThT fibril formation) ([1]; 2 μM Aβ42, range of Netoglitazone concentrations): substantial delay in Aβ42 aggregation was observed in a concentration-dependent manner
- Effect on aggregation kinetics / elongation (k+) with 50% preformed seeds [2]: did not affect the aggregation kinetics; also recorded: does not affect the elongation rates of Aβ42 aggregation
